Assay [1] is described as follows: Selectivity index determined for CC50 (test II) to EC50 x 10e3. The assay is classed as functional.
Assay [2] can be described thus: Selectivity index determined for CC50 (test I) to EC50 x 10e3. The assay is classed as functional.
Assay [3] has as its system PBMC (Homo sapiens). The assay can be described thus: Cytotoxic concentration of compound determined by the […] exclusion staining method in PBMC by test II.
The subject of assay [4] is MT4. The assay can be described thus: Cytotoxic concentration of compound required to reduce the viability of mock infected MT-4 cells on the MTT assay by testI. The class given is functional. The settings on record: Homo sapiens. Background: Formazan colour is commonly taken as a measure of viable cells.
Assay [5] in a line: Selectivity index determined for CC50 (test I) / EC50 x 10e3. The class given is functional.
Assay [6] is described as follows: Selectivity index determined for CC50 (test II) / EC50 x 10e3. The assay is classed as functional.
Assay [7] relates to MT4. The assay can be described thus: Cytotoxic concentration of compound required to reduce the viability of mock infected MT-4 cells on the MTT assay in test I. The class given is functional. To be noted: Homo sapiens.
Assay [8] has as its system Human immunodeficiency virus 1. The assay can be described thus: Effective concentration for 50% protection of HIV-induced cytopathogenicity in MT-4 cells on the MTT assay (ZIDOVUDINE control). The assay is classed as functional, organism-based. The settings on record: Human immunodeficiency virus 1, MT4. For orientation: Damage to the host cells serves as the signal in cytopathic effect assays.

Where only a bound is given, the exact number is not on record here.

One may read the CC50 as the concentration at which the toxic effect on the cells reaches its halfway point. Read a high CC50 as better tolerance by the cells. The EC50 is the concentration needed to bring the measured effect to its halfway point. Low values mean an effect from little substance, high ones a need for much substance.

Regarding `NCCCC[C@@H]1NC(=O)[C@@H](CCCCN)NC(=O)[C@H](CCCN=C(N)N)NC(=O)[C@@H](Cc2ccc(O)cc2)NC(=O)[C@H](NC(=O)[C@@H](NC(=O)[C@H](CCCN=C(N)N)NC(=O)[C@@H](N)CCCNC(N)=O)c2ccc3ccccc3c2)CSSC[C@H](C(=O)N[C@@H](CCCN=C(N)N)C(N)=O)NC(=O)[C@H](CCCNC(N)=O)NC(=O)[C@H](CCCNC(N)=O)NC(=O)[C@H](Cc2ccc(O)cc2)NC(=O)[C@H]2CCCN2C1=O`, the SI in assay [1] was 12; in assay [2], greater than 2.5.

For `NCCCC[C@H]1NC(=O)[C@H](CCCN=C(N)N)NC(=O)[C@@H](Cc2ccc(O)cc2)NC(=O)[C@H](NC(=O)[C@@H](NC(=O)[C@H](CCCN=C(N)N)NC(=O)[C@@H](N)CCCNC(N)=O)c2ccc3ccccc3c2)CSSC[C@H](C(=O)N[C@@H](CCCN=C(N)N)C(N)=O)NC(=O)[C@H](CCCNC(N)=O)NC(=O)[C@H](CCCN=C(N)N)NC(=O)[C@H](Cc2ccc(O)cc2)NC(=O)[C@H]2CCCN2C(=O)[C@H](CCCNC(N)=O)NC1=O`, the figures for the SI in assay [1] and in assay [2] were 420 and greater than 83, respectively.

On to `NCCCC[C@H]1NC(=O)[C@H](CCCN=C(N)N)NC(=O)[C@@H](Cc2ccc(O)cc2)NC(=O)[C@H](NC(=O)[C@@H](NC(=O)[C@H](CCCN=C(N)N)NC(=O)[C@@H](N)CCCNC(N)=O)c2ccc3ccccc3c2)CSSC[C@H](C(=O)N[C@@H](CCCN=C(N)N)C(=O)O)NC(=O)[C@H](CCCNC(N)=O)NC(=O)[C@H](CCCN=C(N)N)NC(=O)[C@H](Cc2ccc(O)cc2)NC(=O)[C@H]2CCCN2C(=O)[C@H](CCCNC(N)=O)NC1=O`, for which the results for the SI in assay [1] and in assay [2] were greater than 22 and greater than 2.8, respectively.

As for `NCCCC[C@@H]1NC(=O)[C@H](CCCN=C(N)N)NC(=O)[C@H](Cc2ccc(O)cc2)NC(=O)[C@@H](NC(=O)[C@@H](NC(=O)[C@H](CCCN=C(N)N)NC(=O)[C@@H](N)CCCN=C(N)N)c2ccc3ccccc3c2)CSSC[C@@H](C(=O)N[C@@H](CCCN=C(N)N)C(=O)O)NC(=O)[C@H](CCCNC(N)=O)NC(=O)[C@H](CCCN=C(N)N)NC(=O)[C@H](Cc2ccc(O)cc2)NC(=O)[C@@H]2CCCN2C(=O)[C@@H](CCCCN)NC1=O`, the CC50 in assay [3] is 59 µM; in assay [4], greater than 1 µM.

In the case of `NCCCC[C@@H]1NC(=O)[C@@H](CCCCN)NC(=O)[C@H](CCCNC(N)=O)NC(=O)[C@@H](Cc2ccc(O)cc2)NC(=O)[C@H](NC(=O)[C@@H](NC(=O)[C@H](CCCN=C(N)N)NC(=O)[C@@H](N)CCCNC(N)=O)c2ccc3ccccc3c2)CSSC[C@H](C(=O)N[C@@H](CCCN=C(N)N)C(=O)O)NC(=O)[C@H](CCCNC(N)=O)NC(=O)[C@H](CCCN=C(N)N)NC(=O)[C@H](Cc2ccc(O)cc2)NC(=O)[C@H]2CCCN2C1=O`, the SI is 22 in assay [1] and greater than 2.7 in assay [2].

Turning to `NCCCC[C@H]1NC(=O)[C@H](CCCN=C(N)N)NC(=O)[C@@H](Cc2ccc(O)cc2)NC(=O)[C@H](NC(=O)[C@@H](NC(=O)[C@H](CCCN=C(N)N)NC(=O)[C@@H](N)CCCN=C(N)N)c2ccc3ccccc3c2)CSSC[C@H](C(=O)N[C@@H](CCCN=C(N)N)C(N)=O)NC(=O)[C@H](CCCNC(N)=O)NC(=O)[C@H](CCCN=C(N)N)NC(=O)[C@H](Cc2ccc(O)cc2)NC(=O)[C@H]2CCCN2C(=O)[C@H](CCCNC(N)=O)NC1=O`, the SI in assay [1] is 21; in assay [2], greater than 22.

In the case of `NCCCC[C@@H]1NC(=O)[C@@H](CCCCN)NC(=O)[C@H](CCCN=C(N)N)NC(=O)[C@@H](Cc2ccc(O)cc2)NC(=O)[C@H](NC(=O)[C@@H](NC(=O)[C@H](CCCN=C(N)N)NC(=O)[C@@H](N)CCCN=C(N)N)c2ccc3ccccc3c2)CSSC[C@H](C(=O)N[C@@H](CCCN=C(N)N)C(=O)O)NC(=O)[C@H](CCCNC(N)=O)NC(=O)[C@H](CCCN=C(N)N)NC(=O)[C@H](Cc2ccc(O)cc2)NC(=O)[C@H]2CCCN2C1=O`, the SI is greater than 0.3 in assay [5] and 18 in assay [6].

On to `NCCCC[C@@H]1NC(=O)[C@@H](CCCCN)NC(=O)[C@H](CCCNC(N)=O)NC(=O)[C@@H](Cc2ccc(O)cc2)NC(=O)[C@H](NC(=O)[C@@H](NC(=O)[C@H](CCCN=C(N)N)NC(=O)[C@@H](N)CCCN=C(N)N)c2ccc3ccccc3c2)CSSC[C@H](C(=O)N[C@@H](CCCN=C(N)N)C(N)=O)NC(=O)[C@H](CCCNC(N)=O)NC(=O)[C@H](CCCN=C(N)N)NC(=O)[C@H](Cc2ccc(O)cc2)NC(=O)[C@H]2CCCN2C1=O`, for which the SI in assay [1] is 680; in assay [2] it was greater than 170.

As to `NCCCC[C@H]1NC(=O)[C@H](CCCNC(N)=O)NC(=O)[C@@H](Cc2ccc(O)cc2)NC(=O)[C@H](NC(=O)[C@@H](NC(=O)[C@H](CCCN=C(N)N)NC(=O)[C@@H](N)CCCN=C(N)N)c2ccc3ccccc3c2)CSSC[C@H](C(=O)N[C@@H](CCCN=C(N)N)C(=O)O)NC(=O)[C@H](CCCNC(N)=O)NC(=O)[C@H](CCCN=C(N)N)NC(=O)[C@H](Cc2ccc(O)cc2)NC(=O)[C@H]2CCCN2C(=O)[C@H](CCCNC(N)=O)NC1=O`, the SI in assay [1] is greater than 1600; in assay [2], greater than 200.

Compound `Cc1cn([C@H]2C[C@H](N=[N+]=[N-])[C@@H](CO)O2)c(=O)[nH]c1=O` [ZIDOVUDINE] returned an SI in assay [2] of 1.5. This compound also returned a CC50 in assay [7] of 12 µM. In assay [8], this compound came in with an EC50 of 0.0079 µM.

`NCCCC[C@@H]1NC(=O)[C@@H](CCCCN)NC(=O)[C@H](CCCNC(N)=O)NC(=O)[C@@H](Cc2ccc(O)cc2)NC(=O)[C@H](NC(=O)[C@@H](NC(=O)[C@H](CCCN=C(N)N)NC(=O)[C@@H](N)CCCN=C(N)N)c2ccc3ccccc3c2)CSSC[C@H](C(=O)N[C@@H](CCCN=C(N)N)C(=O)O)NC(=O)[C@H](CCCNC(N)=O)NC(=O)[C@H](CCCNC(N)=O)NC(=O)[C@H](Cc2ccc(O)cc2)NC(=O)[C@H]2CCCN2C1=O`: the SI in assay [1] is greater than 90; in assay [2], greater than 11.

For `NCCCC[C@H]1NC(=O)[C@H](CCCN=C(N)N)NC(=O)[C@@H](Cc2ccc(O)cc2)NC(=O)[C@H](NC(=O)[C@@H](NC(=O)[C@H](CCCN=C(N)N)NC(=O)[C@@H](N)CCCN=C(N)N)c2ccc3ccccc3c2)CSSC[C@H](C(=O)N[C@@H](CCCN=C(N)N)C(N)=O)NC(=O)[C@H](CCCNC(N)=O)NC(=O)[C@H](CCCNC(N)=O)NC(=O)[C@H](Cc2ccc(O)cc2)NC(=O)[C@H]2CCCN2C(=O)[C@H](CCCNC(N)=O)NC1=O`, the SI in assay [1] is 250; in assay [2] it was greater than 37.

On to `NCCCC[C@@H]1NC(=O)[C@@H](CCCCN)NC(=O)[C@H](CCCNC(N)=O)NC(=O)[C@@H](Cc2ccc(O)cc2)NC(=O)[C@H](NC(=O)[C@@H](NC(=O)[C@H](CCCN=C(N)N)NC(=O)[C@@H](N)CCCN=C(N)N)c2ccc3ccccc3c2)CSSC[C@H](C(=O)N[C@@H](CCCN=C(N)N)C(N)=O)NC(=O)[C@H](CCCNC(N)=O)NC(=O)[C@H](CCCNC(N)=O)NC(=O)[C@H](Cc2ccc(O)cc2)NC(=O)[C@H]2CCCN2C1=O`, for which the SI is greater than 59 in assay [1] and greater than 15 in assay [2].

Take `NCCCC[C@H]1NC(=O)[C@H](CCCN=C(N)N)NC(=O)[C@@H](Cc2ccc(O)cc2)NC(=O)[C@H](NC(=O)[C@@H](NC(=O)[C@H](CCCN=C(N)N)NC(=O)[C@@H](N)CCCN=C(N)N)c2ccc3ccccc3c2)CSSC[C@H](C(=O)N[C@@H](CCCN=C(N)N)C(=O)O)NC(=O)[C@H](CCCNC(N)=O)NC(=O)[C@H](CCCNC(N)=O)NC(=O)[C@H](Cc2ccc(O)cc2)NC(=O)[C@H]2CCCN2C(=O)[C@H](CCCNC(N)=O)NC1=O`: the SI in assay [1] was greater than 100; in assay [2], greater than 13.

In the case of `NCCCC[C@@H]1NC(=O)[C@@H](CCCCN)NC(=O)[C@H](CCCNC(N)=O)NC(=O)[C@@H](Cc2ccc(O)cc2)NC(=O)[C@H](NC(=O)[C@@H](NC(=O)[C@H](CCCN=C(N)N)NC(=O)[C@@H](N)CCCN=C(N)N)c2ccc3ccccc3c2)CSSC[C@H](C(=O)N[C@@H](CCCN=C(N)N)C(=O)O)NC(=O)[C@H](CCCNC(N)=O)NC(=O)[C@H](CCCN=C(N)N)NC(=O)[C@H](Cc2ccc(O)cc2)NC(=O)[C@H]2CCCN2C1=O`, the SI in assay [1] is 180; in assay [2], greater than 29.

For the compound `NCCCC[C@@H]1NC(=O)[C@@H](CCCCN)NC(=O)[C@H](CCCN=C(N)N)NC(=O)[C@@H](Cc2ccc(O)cc2)NC(=O)[C@H](NC(=O)[C@@H](NC(=O)[C@H](CCCN=C(N)N)NC(=O)[C@@H](N)CCCNC(N)=O)c2ccc3ccccc3c2)CSSC[C@H](C(=O)N[C@@H](CCCN=C(N)N)C(=O)O)NC(=O)[C@H](CCCNC(N)=O)NC(=O)[C@H](CCCNC(N)=O)NC(=O)[C@H](Cc2ccc(O)cc2)NC(=O)[C@H]2CCCN2C1=O`, the SI was greater than 12 in assay [1] and greater than 1.5 in assay [2].

`NCCCC[C@H]1NC(=O)[C@H](CCCN=C(N)N)NC(=O)[C@@H](Cc2ccc(O)cc2)NC(=O)[C@H](NC(=O)[C@@H](NC(=O)[C@H](CCCN=C(N)N)NC(=O)[C@@H](N)CCCN=C(N)N)c2ccc3ccccc3c2)CSSC[C@H](C(=O)N[C@@H](CCCN=C(N)N)C(=O)O)NC(=O)[C@H](CCCNC(N)=O)NC(=O)[C@H](CCCN=C(N)N)NC(=O)[C@H](Cc2ccc(O)cc2)NC(=O)[C@H]2CCCN2C(=O)[C@H](CCCNC(N)=O)NC1=O`: the SI in assay [1] was 28; in assay [2], greater than 20.

Turning to `NCCCC[C@@H]1NC(=O)[C@@H](CCCCN)NC(=O)[C@H](CCCNC(N)=O)NC(=O)[C@@H](Cc2ccc(O)cc2)NC(=O)[C@H](NC(=O)[C@@H](NC(=O)[C@H](CCCN=C(N)N)NC(=O)[C@@H](N)CCCNC(N)=O)c2ccc3ccccc3c2)CSSC[C@H](C(=O)N[C@@H](CCCN=C(N)N)C(N)=O)NC(=O)[C@H](CCCNC(N)=O)NC(=O)[C@H](CCCN=C(N)N)NC(=O)[C@H](Cc2ccc(O)cc2)NC(=O)[C@H]2CCCN2C1=O`, the values for the SI in assay [1] and in assay [2] were 53 and greater than 15, respectively.

For `NCCCC[C@H]1NC(=O)[C@H](CCCNC(N)=O)NC(=O)[C@@H](Cc2ccc(O)cc2)NC(=O)[C@H](NC(=O)[C@@H](NC(=O)[C@H](CCCN=C(N)N)NC(=O)[C@@H](N)CCCN=C(N)N)c2ccc3ccccc3c2)CSSC[C@H](C(=O)N[C@@H](CCCN=C(N)N)C(N)=O)NC(=O)[C@H](CCCNC(N)=O)NC(=O)[C@H](CCCN=C(N)N)NC(=O)[C@H](Cc2ccc(O)cc2)NC(=O)[C@H]2CCCN2C(=O)[C@H](CCCNC(N)=O)NC1=O`, the SI was greater than 2000 in assay [1] and greater than 250 in assay [2].

Values taken from ChEMBL document CHEMBL1134146, “Development of specific CXCR4 inhibitors possessing high selectivity indexes as well as complete stability in serum based on an anti-HIV peptide T140” (Bioorg Med Chem Lett, 2001).
